Assays:
Type in all cases: binding
HLA A*3001 = HLA A*3001 (Homo sapiens, UniProt P04439, D140H/D185E/E176W/F33S/G80R/H175R/K168Q/R138E/R41S); assay: biochemical
HLA A*3201 = HLA A*3201 (Homo sapiens, UniProt P04439, A270S/D101S/D185E/E176V/E277Q/F133L/G103R/G107R/G231S/H175R/I121M/I218V/I322F/K168Q/L105A/L300P/L318F/M331R/P208A/P217A/Q94H/R106L/R138Q/S129P/T104I/T323A/T345S/V100E/V321M/V358M); assay: biochemical
HLA A*6802 = HLA A*6802 (Homo sapiens, UniProt P04439, A269V/D140Y/D185E/E176V/E277Q/E87N/F33Y/G231S/I121R/I166T/I218V/L180W/L300P/L318F/N151K/P208A/P217A/Q86R/R138H/R169H/S129P/T345S/V36M)
HLA B*0801 = HLA B*0801 (Homo sapiens, UniProt P01889, A93T/A95T/D138N/E176V/E187T/K202T/Q94N/R180D/S35A/V36M/Y33D/Y91F); assay: biochemical
HLA B*1501 = HLA B*1501 (Homo sapiens, UniProt P01889, A329T/A93T/A95T/C349S/D201E/D98Y/E187L/E204Q/E69M/E70A/K202T/N87E/Q94N/R155S/R180W/S121R/S35A/S48A/V306I/V36M/Y140S/Y91S); assay: biochemical
HLA B*1503 = HLA B*1503 (Homo sapiens, UniProt P01889, A329T/A93T/A95T/C349S/D201E/D98Y/E187L/E204Q/K202T/N87E/Q94N/R155S/R180L/S121R/S35A/V306I/V36M/Y140S/Y91S); assay: biochemical
HLA B*3501 = HLA B*3501 (Homo sapiens, UniProt P01889, A329T/A93T/A95T/C349S/D201E/D98Y/E176V/E187L/E204Q/E69T/I218V/K202T/L119I/Q94N/R155S/R180L/S121R/S35A/S48A/T118I/V127L/V306I/V36M/Y140S/Y91F)
HLA B*5101 = HLA B*5101 (Homo sapiens, UniProt P01889, A329T/A93T/A95T/C349S/D138N/D201E/D98Y/E187L/E204Q/E69T/G107R/I218V/K202T/L105A/L119W/N104I/Q94N/R106L/R155S/R180L/S101N/S121T/S35A/S48A/V306I/V36M/Y195H/Y91F)
HLA B*5301 = HLA B*5301 (Homo sapiens, UniProt P01889, A329T/A93T/A95T/C349S/D201E/D98Y/E176V/E187L/E204Q/E69T/G107R/I218V/K202T/L105A/L119I/N104I/Q94N/R106L/R155S/R180L/S101N/S121R/S35A/S48A/T118I/V127L/V306I/V36M/Y140S/Y91F)
HLA B*5401 = HLA B*5401 (Homo sapiens, UniProt P01889, A329T/C349S/D138N/D201E/E176V/E187T/E204Q/E69G/I76V/K202T/L119W/R155S/R180L/S121T/S35A/S48A/V127L/V306I/V36M/Y140L)
HLA B*5801 = HLA B*5801 (Homo sapiens, UniProt P01889, A329T/C349S/D201E/D98Y/E176V/E187L/E204Q/E69T/G107R/I218V/I90N/K202T/L105A/L119I/N104I/N87E/Q89R/Q94S/R106L/R155S/R180L/R86G/S101N/S121R/S35A/S48A/T118I/V127L/V306I/V36M/Y140S/Y91M)
HLA B*5802 = HLA B*5802 (Homo sapiens, UniProt P01889, A329T/C349S/D201E/D98Y/E176V/E187L/E204Q/E69T/G107R/I218V/I90N/K202T/L105A/N104I/N87E/Q89R/Q94S/R106L/R155S/R180L/R86G/S101N/S121W/S35A/S48A/V127L/V306I/V36M/Y140S/Y91M)
H-2 D^b = H-2 D^b (Mus musculus, UniProt P01899)
Sequence of H-2 D^b (P01887 21-119): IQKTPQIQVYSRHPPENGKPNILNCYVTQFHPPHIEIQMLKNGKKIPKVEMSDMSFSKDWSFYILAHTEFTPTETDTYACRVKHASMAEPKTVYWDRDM
Sequence of H-2 D^b (P01899 25-362): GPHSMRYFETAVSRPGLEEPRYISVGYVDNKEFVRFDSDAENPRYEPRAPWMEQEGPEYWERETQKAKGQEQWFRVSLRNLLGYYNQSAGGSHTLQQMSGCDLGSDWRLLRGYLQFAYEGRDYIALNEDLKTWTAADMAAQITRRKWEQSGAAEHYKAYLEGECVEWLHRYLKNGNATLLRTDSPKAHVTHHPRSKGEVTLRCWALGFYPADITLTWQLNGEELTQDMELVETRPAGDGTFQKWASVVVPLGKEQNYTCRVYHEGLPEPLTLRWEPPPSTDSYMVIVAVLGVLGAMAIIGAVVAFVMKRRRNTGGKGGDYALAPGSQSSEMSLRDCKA

H-2 D^d = H-2 D^d (Mus musculus, UniProt P01900)
Sequence of H-2 D^d (P01900 whole entry, looked up): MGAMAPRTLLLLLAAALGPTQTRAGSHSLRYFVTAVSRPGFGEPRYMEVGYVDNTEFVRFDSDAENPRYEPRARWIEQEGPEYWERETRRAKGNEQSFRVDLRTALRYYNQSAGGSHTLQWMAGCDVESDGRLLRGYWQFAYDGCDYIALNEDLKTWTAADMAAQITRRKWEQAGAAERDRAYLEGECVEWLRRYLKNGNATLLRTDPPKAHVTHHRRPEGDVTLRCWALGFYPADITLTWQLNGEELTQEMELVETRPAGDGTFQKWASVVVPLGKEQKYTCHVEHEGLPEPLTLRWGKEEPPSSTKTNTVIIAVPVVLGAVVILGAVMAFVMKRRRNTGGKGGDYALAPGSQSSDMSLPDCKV

H-2 K^d = H-2 K^d (Mus musculus, UniProt P01902)
Sequence of H-2 K^d (P01887 21-119): as the sequence (P01887 21-119) above
Sequence of H-2 K^d (P01902 22-368): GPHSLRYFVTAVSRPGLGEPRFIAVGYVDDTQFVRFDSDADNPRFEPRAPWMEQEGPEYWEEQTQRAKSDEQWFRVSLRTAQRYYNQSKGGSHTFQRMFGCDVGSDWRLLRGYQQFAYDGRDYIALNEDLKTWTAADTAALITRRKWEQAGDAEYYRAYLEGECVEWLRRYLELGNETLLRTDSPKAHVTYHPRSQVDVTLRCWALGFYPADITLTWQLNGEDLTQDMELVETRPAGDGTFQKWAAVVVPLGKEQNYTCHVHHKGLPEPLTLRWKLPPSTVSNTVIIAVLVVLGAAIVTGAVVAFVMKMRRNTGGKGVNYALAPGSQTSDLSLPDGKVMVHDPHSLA

H-2 K^k = H-2 K^k (Mus musculus, UniProt P04223)
Sequence of H-2 K^k (P01887 21-119): as the sequence (P01887 21-119) above
Sequence of H-2 K^k (P04223 22-369): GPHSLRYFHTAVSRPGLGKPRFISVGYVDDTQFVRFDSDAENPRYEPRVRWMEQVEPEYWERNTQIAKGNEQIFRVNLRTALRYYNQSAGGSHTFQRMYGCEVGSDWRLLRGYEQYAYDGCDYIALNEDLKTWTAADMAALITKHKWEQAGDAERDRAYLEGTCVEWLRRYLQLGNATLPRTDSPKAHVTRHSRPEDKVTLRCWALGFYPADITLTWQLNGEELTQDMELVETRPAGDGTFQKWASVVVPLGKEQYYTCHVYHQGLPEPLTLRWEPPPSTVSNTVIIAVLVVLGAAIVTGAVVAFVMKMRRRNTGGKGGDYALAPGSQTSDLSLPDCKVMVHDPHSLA

Row | Sequence | Normalized average relative binding affinity(ARB) (HLA A*3001) | Normalized average relative binding affinity(ARB) (HLA A*3201) | Normalized average relative binding affinity(ARB) (HLA A*6802) | Normalized average relative binding affinity(ARB) (HLA B*0801) | Normalized average relative binding affinity(ARB) (HLA B*1501) | Normalized average relative binding affinity(ARB) (HLA B*1503) | Normalized average relative binding affinity(ARB) (HLA B*3501) | Normalized average relative binding affinity(ARB) (HLA B*5101) | Normalized average relative binding affinity(ARB) (HLA B*5301) | Normalized average relative binding affinity(ARB) (HLA B*5401) | Normalized average relative binding affinity(ARB) (HLA B*5801) | Normalized average relative binding affinity(ARB) (HLA B*5802) | Normalized average relative binding affinity(ARB) (H-2 D^b) | Normalized average relative binding affinity(ARB) (H-2 D^d) | Normalized average relative binding affinity(ARB) (H-2 K^d) | Normalized average relative binding affinity(ARB) (H-2 K^k)
1 | XXXXXXPXX [3064.0133] | 1.0 | 0.088 | 0.37 | 0.36 | 0.62 | 0.16 | 0.31 | 0.53 | 0.50 | 0.32 | 0.22 | 1.0 | 0.26 | 0.020 | 0.021 | 0.10
2 | XXXXXXXSX [3064.0156] | 0.23 | 1.0 | 0.27 | 1.0 | 0.34 | 1.0 | 0.20 | 0.44 | 0.11 | 1.0 | 0.31 | 0.30 | 0.13 | 1.0 | 0.61 | 0.48
3 | XXXXXXXTX [3064.0157] | 0.31 | 0.86 | 0.37 | 0.24 | 0.40 | 0.23 | 0.26 | 0.57 | 0.22 | 0.20 | 0.29 | 0.66 | 0.24 | 0.58 | 0.52 | 0.28
4 | XXXXXXXDX [3064.0143] | 0.052 | 0.10 | 0.093 | 0.17 | 0.049 | 0.14 | 0.073 | 0.17 | 0.082 | 0.038 | 0.063 | 0.087 | 0.090 | 0.44 | 0.62 | 0.26
5 | XXXXXXIXX [3064.0128] | 0.16 | 0.094 | 0.55 | 0.030 | 0.40 | 0.29 | 0.48 | 0.59 | 0.10 | 0.15 | 0.65 | 0.058 | 0.33 | 0.048 | 0.045 | 0.037
6 | XXXXNXXXX [3064.0092] | 0.12 | 0.16 | 0.30 | 0.037 | 0.56 | 0.26 | 1.0 | 0.40 | 0.17 | 0.34 | 0.13 | 0.31 | 1.0 | 0.19 | 0.21 | 0.090
7 | XXXXXIXXX [3064.0108] | 0.27 | 0.83 | 0.38 | 0.048 | 0.53 | 0.41 | 0.28 | 0.74 | 0.41 | 0.81 | 0.67 | 0.072 | 0.77 | 0.46 | 0.36 | 0.55
8 | XXXXKXXXX [3064.0089] | 0.16 | 0.16 | 0.14 | 0.47 | 0.31 | 0.13 | 0.12 | 0.29 | 0.042 | 0.049 | 0.11 | 0.58 | 0.032 | 0.44 | 0.011 | 0.091

Reference: article PMC2248166, “Quantitative peptide binding motifs for 19 human and mouse MHC class I molecules derived using positional scanning combinatorial peptide libraries” (Immunome Research, 2008)
